From the supplement of paper PMC10307832

How the values were obtained:
Assay in all cases: relative viability (nuclei count vs DMSO), 5 days (fraction); higher = more cells survive
[1] = test system: IA-LM
In short: (§1)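 Lung cancer cell lines in 1536-well plates were dosed by pin tool the day after seeding, either with one drug alone or with a fixed anchor-drug dose plus five library-drug doses (not always all listed) in √10 steps. After 5 days, cells were fixed and their nuclei stained in one step (final 0.05% Triton X-100, 1% formaldehyde, 1 ug/ml Hoechst), then counted on 4× images. Relative viability is the nuclei count in treated wells divided by that in vehicle wells. Values are medians of duplicate plates.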

[2] = test system: NCI-H1703
In short: as §1

[3] = test system: NCI-H1299
In short: as §1

[4] = test system: Calu-6
In short: as §1

[5] = test system: A549
In short: as §1

[6] = test system: NCI-H1648
In short: as §1

| Structure (SMILES) | relative viability ([1]; first compound 0.253 µM) | relative viability ([1]; first compound 0.8 µM) | relative viability ([1]; first compound 2.53 µM) | relative viability ([1]; first compound 8 µM) | relative viability ([2]; first compound 0.253 µM) | relative viability ([2]; first compound 0.8 µM) | relative viability ([2]; first compound 2.53 µM) | relative viability ([2]; first compound 8 µM) | relative viability ([3]; first compound 0.253 µM) | relative viability ([3]; first compound 0.8 µM) | relative viability ([3]; first compound 2.53 µM) | relative viability ([3]; first compound 8 µM) | relative viability ([4]; first compound 0.253 µM) | relative viability ([5]; first compound 0.253 µM) | relative viability ([5]; first compound 0.8 µM) | relative viability ([5]; first compound 2.53 µM) | relative viability ([5]; first compound 8 µM) | relative viability ([6]; first compound 0.253 µM) | relative viability ([6]; first compound 2.53 µM) | relative viability ([6]; first compound 8 µM) | other results |
| --- | --- | --- | --- | --- | --- | --- | --- | --- | --- | --- | --- | --- | --- | --- | --- | --- | --- | --- | --- | --- | --- |
| Nc1cccc2c1CN(C1CCC(=O)NC1=O)C2=O (stereo not drawn) [Lenalidomide] + CC1(C)CCC(c2ccc(Cl)cc2)=C(CN2CCN(c3ccc(C(=O)NS(=O)(=O)c4ccc(N[C@H](CCN5CCOCC5)CSc5ccccc5)c(S(=O)(=O)C(F)(F)F)c4)cc3)CC2)C1 [Navitoclax] (partner 0.5 µM) | 0.895 | 0.715 | 0.829 | 0.786 | 0.994 | 1.28 | 1.23 | 1.23 | 1.05 | 1.04 | 1.07 | 1.05 | 0.814 | 1.21 | 1.17 | 1.21 | 1.24 | – | – | – | relative viability ([4]; first compound 0.8 µM): 0.805; relative viability ([4]; first compound 2.53 µM): 0.803; relative viability ([4]; first compound 8 µM): 0.863 |
| Nc1cccc2c1CN(C1CCC(=O)NC1=O)C2=O (stereo not drawn) [Lenalidomide] + CC(=O)Nc1cccc(-n2c(=O)n(C3CC3)c(=O)c3c(Nc4ccc(I)cc4F)n(C)c(=O)c(C)c32)c1 [Trametinib] (partner 0.02 µM) | – | – | – | – | – | – | – | – | – | – | – | – | – | – | – | – | – | 0.556 | 0.597 | 0.476 | – |
| Nc1cccc2c1CN(C1CCC(=O)NC1=O)C2=O (stereo not drawn) [Lenalidomide] + CC(=O)c1c(C)c2cnc(Nc3ccc(N4CCNCC4)cn3)nc2n(C2CCCC2)c1=O [Palbociclib] (partner 0.5 µM) | – | – | – | – | – | – | – | – | – | – | – | – | – | – | – | – | – | 0.304 | 0.282 | 0.253 | – |
| Nc1cccc2c1CN(C1CCC(=O)NC1=O)C2=O (stereo not drawn) [Lenalidomide] + COc1cc2c(Oc3ccc(NC(=O)C4(C(=O)Nc5ccc(F)cc5)CC4)cc3F)ccnc2cc1OCCCN1CCOCC1 [Foretinib] (partner 0.25 µM) | 0.952 | 1.15 | 1.28 | 1.07 | 0.328 | 0.348 | 0.403 | 0.426 | 1.1 | 1.08 | 1.09 | 1.13 | 0.932 | 0.925 | 0.954 | 1.04 | 0.897 | – | – | – | relative viability ([4]; first compound 0.8 µM): 0.889; relative viability ([4]; first compound 2.53 µM): 0.921; relative viability ([4]; first compound 8 µM): 0.887 |
| Nc1cccc2c1CN(C1CCC(=O)NC1=O)C2=O (stereo not drawn) [Lenalidomide] + COc1cccc2cc(-c3nc([C@H]4CC[C@H](C(=O)O)CC4)n4ncnc(N)c34)[nH]c12 [OSI-027] (partner 0.5 µM) | – | – | – | – | – | – | – | – | – | – | – | – | – | – | – | – | – | 0.272 | 0.253 | 0.227 | relative viability ([6]; first compound 0.8 µM): 0.22 |
| Nc1cccc2c1CN(C1CCC(=O)NC1=O)C2=O (stereo not drawn) [Lenalidomide] + CS(=O)(=O)N1CCN(Cc2cc3nc(-c4cccc5[nH]ncc45)nc(N4CCOCC4)c3s2)CC1 [Pictilisib] (partner 1 µM) | 0.37 | 0.375 | 0.338 | 0.359 | 0.245 | 0.27 | 0.287 | 0.267 | 0.733 | 0.923 | 0.931 | 0.963 | 0.861 | 0.491 | 0.448 | 0.553 | 0.52 | – | – | – | relative viability ([4]; first compound 0.8 µM): 1.01; relative viability ([4]; first compound 2.53 µM): 1.06; relative viability ([4]; first compound 8 µM): 0.969 |
| Nc1cccc2c1CN(C1CCC(=O)NC1=O)C2=O (stereo not drawn) [Lenalidomide] + C[C@@H](Oc1cc(-c2cnn(C3CCNCC3)c2)cnc1N)c1c(Cl)ccc(F)c1Cl [Crizotinib] (partner 1 µM) | 0.833 | 0.753 | 0.759 | 0.756 | 0.467 | 0.707 | 0.671 | 0.89 | 0.978 | 1 | 1.01 | 0.977 | 0.808 | 0.777 | 0.835 | 0.745 | 0.902 | – | – | – | relative viability ([4]; first compound 0.8 µM): 0.825; relative viability ([4]; first compound 2.53 µM): 1.06; relative viability ([4]; first compound 8 µM): 1.01 |
| Nc1cccc2c1CN(C1CCC(=O)NC1=O)C2=O (stereo not drawn) [Lenalidomide] + C[C@]1(O)C[C@@H](c2nc(-c3ccc4ccc(-c5ccccc5)nc4c3)c3c(N)nccn32)C1 [Linsitinib] (partner 1 µM) | 0.605 | 0.468 | 0.667 | 0.49 | 0.566 | 1.01 | 0.956 | 0.431 | 0.954 | 0.968 | 1.06 | 0.852 | 0.836 | 0.539 | 0.573 | 0.56 | 0.368 | – | – | – | relative viability ([4]; first compound 0.8 µM): 0.984; relative viability ([4]; first compound 2.53 µM): 1.12; relative viability ([4]; first compound 8 µM): 0.818 |
| Nc1cccc2c1CN(C1CCC(=O)NC1=O)C2=O (stereo not drawn) [Lenalidomide] + Cc1cc(Nc2cc(N3CCN(C)CC3)nc(Sc3ccc(NC(=O)C4CC4)cc3)n2)n[nH]1 [Tozasertib] (partner 0.1 µM) | – | – | – | – | – | – | – | – | – | – | – | – | – | – | – | – | – | 0.578 | 0.509 | 0.599 | relative viability ([6]; first compound 0.8 µM): 0.317 |
| Nc1cccc2c1CN(C1CCC(=O)NC1=O)C2=O (stereo not drawn) [Lenalidomide] + N=C(N)NC(=N)NCCc1ccccc1 [Phenformin] (partner 250 µM) | – | – | – | – | – | – | – | – | – | – | – | – | – | 0.104 | 0.158 | 0.168 | 0.208 | – | – | – | – |
| Nc1cccc2c1CN(C1CCC(=O)NC1=O)C2=O (stereo not drawn) [Lenalidomide] + NC(=O)Nc1cc(-c2cccc(F)c2)sc1C(=O)N[C@H]1CCCNC1 [AZD7762] (partner 0.2 µM) | – | – | – | – | 0.123 | 0.117 | 0.131 | 0.135 | – | – | – | – | – | – | – | – | – | 0.591 | 0.626 | 0.689 | – |
| Nc1cccc2c1CN(C1CCC(=O)NC1=O)C2=O (stereo not drawn) [Lenalidomide] + Nc1nc2[nH]cc(CCc3ccc(C(=O)N[C@@H](CCC(=O)O)C(=O)O)cc3)c2c(=O)[nH]1 [Pemetrexed] (partner 0.2 µM) | – | – | – | – | – | – | – | – | – | – | – | – | – | – | – | – | – | 0.765 | 0.711 | 0.747 | – |
| Nc1cccc2c1CN(C1CCC(=O)NC1=O)C2=O (stereo not drawn) [Lenalidomide] + Nc1ncn([C@H]2C[C@H](O)[C@@H](CO)O2)c(=O)n1 [Decitabine] (partner 2 µM) | – | – | – | – | – | – | – | – | – | – | – | – | – | 0.211 | 0.22 | 0.268 | 0.269 | 0.562 | 0.557 | 0.411 | – |
| Nc1cccc2c1CN(C1CCC(=O)NC1=O)C2=O (stereo not drawn) [Lenalidomide] + O=C(CCCCCCC(=O)Nc1ccccc1)NO [Vorinostat] (partner 1 µM) | 0.852 | 0.969 | 1.22 | 0.814 | – | – | – | – | – | – | – | – | – | – | – | – | – | 0.513 | 0.885 | 0.392 | – |
| Nc1cccc2c1CN(C1CCC(=O)NC1=O)C2=O (stereo not drawn) [Lenalidomide] + O=C(c1cc(Cc2n[nH]c(=O)c3ccccc23)ccc1F)N1CCN(C(=O)C2CC2)CC1 [Olaparib] (partner 8 µM) | 0.874 | 0.799 | 0.777 | 0.728 | 0.398 | 0.521 | 0.478 | 0.433 | 0.938 | 1.03 | 1 | 1.07 | 0.547 | 0.401 | 0.101 | 0.22 | 0.228 | 0.883 | 1.12 | 0.922 | relative viability ([4]; first compound 0.8 µM): 0.591; relative viability ([4]; first compound 2.53 µM): 0.674; relative viability ([4]; first compound 8 µM): 0.799 |
| Cc1cn(-c2cc(NC(=O)c3ccc(C)c(Nc4nccc(-c5cccnc5)n4)c3)cc(C(F)(F)F)c2)cn1 [Nilotinib] + CS(=O)(=O)CCNCc1ccc(-c2ccc3ncnc(Nc4ccc(OCc5cccc(F)c5)c(Cl)c4)c3c2)o1 [Lapatinib] (partner 2 µM) | – | – | – | – | – | – | – | – | – | – | – | – | – | – | – | – | – | – | – | – | relative viability ([1]; first compound 0.003162 µM): 0.936; relative viability ([1]; first compound 0.01 µM): 0.755; relative viability ([1]; first compound 0.03162 µM): 0.459; relative viability ([1]; first compound 0.1 µM): 0.794; relative viability ([2]; first compound 0.003162 µM): 0.738; relative viability ([2]; first compound 0.01 µM): 0.567; relative viability ([2]; first compound 0.03162 µM): 0.208; relative viability ([2]; first compound 0.1 µM): 0.227; relative viability ([3]; first compound 0.001 µM): 0.967; relative viability ([3]; first compound 0.003162 µM): 0.974; relative viability ([3]; first compound 0.01 µM): 0.992; relative viability ([3]; first compound 0.03162 µM): 1.05; relative viability ([3]; first compound 0.1 µM): 0.98; relative viability ([5]; first compound 0.001 µM): 1.01; relative viability ([5]; first compound 0.003162 µM): 1.07; relative viability ([5]; first compound 0.01 µM): 1.09; relative viability ([5]; first compound 0.03162 µM): 0.881; relative viability ([5]; first compound 0.1 µM): 0.672 |
| Cc1cn(-c2cc(NC(=O)c3ccc(C)c(Nc4nccc(-c5cccnc5)n4)c3)cc(C(F)(F)F)c2)cn1 [Nilotinib] + Nc1nc2[nH]cc(CCc3ccc(C(=O)N[C@@H](CCC(=O)O)C(=O)O)cc3)c2c(=O)[nH]1 [Pemetrexed] (partner 0.2 µM) | – | – | – | – | – | – | – | – | – | – | – | – | – | – | – | – | – | – | – | – | relative viability ([6]; first compound 0.001 µM): 0.792; relative viability ([6]; first compound 0.003162 µM): 0.685; relative viability ([6]; first compound 0.01 µM): 0.726; relative viability ([6]; first compound 0.03162 µM): 0.506; relative viability ([6]; first compound 0.1 µM): 0.685 |
